Test results: patent US9259399B2, “Targeting CDK4 and CDK6 in cancer therapy” (Cornell University, priority 2007, dated 2016)
“Also recorded” adds a separate entry of the source. Residues, ends and D or L forms follow the SMILES beside them. *: point of attachment. Cbz = O=C(OCc1ccccc1)*; CH2F = FC*

Assays:
MM1.S cells = test: Apoptosis pathway in myeloma cells (caspase/PARP cleavage, Bcl-2 family mRNA and protein, Smac release); assay type: cell-based, human
Procedure: Total RNA was isolated using the TRIzol reagent (Invitrogen). […] Reactions were carried out in triplicate in the ABI PRISM 7900 HT Sequence Detection System. The relative amount of products was determined by the comparative Ct method according to the manufacturer's instructions. Viable cells were obtained by Ficoll density centrifugation (GE Healthcare, Piscataway, N.J.). Cytosolic and mitochondrial fractions were isolated as described (Yang et al., 1997). Whole cells or purified mitochondria were lysed in a buffer containing 10 mM Tris-HCl, pH 7.5, 150 mM NaCl, 5 mM EDTA, 1% Triton X-100, and protease inhibitors. For detection of phosphorylated Stat3, cells were lysed in a buffer containing 20 mM Tris, pH 7.5, 150 mM NaCl, 1 mM EDTA, 1 mM EGTA, 1% Triton X-100, 2.5 mM sodium pyrophosphate, 1 mM β-glycerophosphate, 1 mM Na3VO4, and protease inhibitors. Immunoblotting was performed as described in Huang et al. (2004). Signals were developed with the SuperSignal West Femto Maximum Sensitivity Substrate (Pierce Biotechnology, Rockford, Ill.). For immunoprecipitation, lysate (50 μg of protein) was precleared with 20 μl of Protein G PLUS-agarose beads (Santa Cruz Biotechnology, Santa Cruz, Calif.) and incubated with rabbit anti-Bim, anti Bcl-XL (Cell signaling Technology), anti-Mcl1 (Santa Cruz), anti-Bak (Sigma) or mouse anti-Bcl-2 (DakoCytomation, Carpinteria, Calif.) overnight at 4° C. The immunocomplexes were collected by incubation with Protein G PLUS-agarose beads (Santa Cruz) and centrifugation. These immunocomplex samples were then analyzed by immunoblotting.

[1] = test system: myeloma, AML and solid tumor xenograft; settings: cited from earlier work
HMCLs, including MM1.S = test: BrdU-uptake and DNA content (cell cycle) in human myeloma cell lines; assay type: cell-based; settings: for proportion of cells in S phase: PD 0332991 0.25 μM 24 h
Procedure: Cells were incubated with 5-bromo-2-deoxyuridine (BrdU, 5 μg/ml; Sigma) at 37° C. for 30 min (HMCLs) or 16 h (BMM cells). Cells were fixed with 70% ethanol overnight at 4° C., incubated with 0.4 mg/ml pepsin for 20 min at room temperature and 2N HCl for 10 min at 37° C. Samples were washed with 50 mM sodium borate (pH 8.5) and then 0.1% BSA/PBS. To detect BrdU, cells were incubated with a FITC-conjugated anti-BrdU mouse mAb (Roche Diagnostics, Pleasanton, Calif.) for 30 min at room temperature. For DNA content analysis, cells were incubated further with 50 μg/ml propidium iodide and 100 U/ml ribonuclease A (Sigma) for 30 min at 37° C. Samples were analyzed by flow cytometry.

[2] = test system: human osteoclast cultures; test: Osteoclast formation from bone marrow cells of multiple myeloma patients; assay type: cell-based
Procedure: Non-adherent mononuclear bone marrow cells from multiple myeloma patients were cultured in the presence of macrophage colony stimulating factor (M-CSF) and Receptor Activator for Nuclear Factor κ[…] (RANKL) for three weeks.

CDK4/6 = settings: mantle cell lymphoma and acute myeloid leukemia cells ex vivo; cited from earlier work
[3] = test system: MM1.S and MM1.R human myeloma cell lines; test: Cytotoxic killing of myeloma cell lines (viability, mitochondrial membrane depolarization)
[4] = test system: at least thirty-eight other types of kinases, including CDK2; settings: at concentrations below 5 μM, at least 38 other kinases; cited from earlier work
CDK4 and CDK6 [5] = test: Phase I/II clinical trial in multiple myeloma; assay type: in vivo; settings: within the tolerable dose in humans; preliminary data
IL-6Rα, gp130, Stat3 = test: IL-6 signaling in myeloma cells (surface IL-6Rα, gp130, p-Stat3); assay type: cell-based, human; settings: for expression of surface IL-6Rα (gp80): PD 0332991 0.25 μM, bortezomib 4 nM; for surface gp130: PD 0332991, bortezomib 4 nM, or both
Procedure: Viable cells were obtained by Ficoll density centrifugation (GE Healthcare, Piscataway, N.J.). Cytosolic and mitochondrial fractions were isolated as described (Yang et al., 1997). Whole cells or purified mitochondria were lysed in a buffer containing 10 mM Tris-HCl, pH 7.5, 150 mM NaCl, 5 mM EDTA, 1% Triton X-100, and protease inhibitors. For detection of phosphorylated Stat3, cells were lysed in a buffer containing 20 mM Tris, pH 7.5, 150 mM NaCl, 1 mM EDTA, 1 mM EGTA, 1% Triton X-100, 2.5 mM sodium pyrophosphate, 1 mM β-glycerophosphate, 1 mM Na3VO4, and protease inhibitors. Immunoblotting was performed as described in Huang et al. (2004). Signals were developed with the SuperSignal West Femto Maximum Sensitivity Substrate (Pierce Biotechnology, Rockford, Ill.).

[6] = test system: primary CD138+ human BM myeloma (BMM) cells; test: Killing of primary myeloma cells co-cultured with HS-5 stromal cells; settings: for reduction of live BMM cells: 24 hours ex vivo, PD 0332991 1-2 μM
CDK4 and CDK6 [7] = settings: cited from earlier work
[8] = test system: retinoblastoma (Rb)-positive tumor cells; settings: cited from earlier work
Luc+GFP+MM1.S cells = test: NOD/SCID xenograft human myeloma model (bioluminescence imaging); assay type: in vivo, NOD/SCID mice; settings: for MMD in human myeloma cells vs mouse BM cells in vivo: bortezomib 0.25 mg/kg, with or without PD 0332991 150 mg/kg pretreatment; for tumor development (BLI): day 8, PD 0332991 150 mg/kg daily 3 days, bortezomib 0.25 mg/kg days 4 and 7
[9] = test system: CAG NOD/SCID myeloma model; settings: 150 mg/kg; by day 9; cited from earlier work

In the case of `COC(=O)C[C@H](NC(=O)[C@H](C)NC(=O)[C@@H](NC(=O)OCc1ccccc1)C(C)C)C(=O)CF` [ZVAD-FMK] (Cbz-Val-Ala-Asp(OMe)-CH2F), the “killing by PD-B in the presence of pan-caspase inhibitor” value (MM1.S cells) is reported as “completely inhibited”.

For `CC(=O)c1c(C)c2cnc(Nc3ccc(N4CCNCC4)cn3)nc2n(C2CCCC2)c1=O` [PD 0332991, 6-acetyl-8-cyclopentyl-5-methyl-2-[5-piperazin-1-yl-pyridin-2-ylamino)-8H-pyrido[2,3-d]pyrimidin-7-one], the “myeloma tumor growth upon discontinuation” value ([1]; after discontinuation of PD 0332991) is listed as “resumed upon discontinuation”, the tumor growth ([1]; myeloma, AML and solid tumor xenograft models) is listed as “suppressed tumor growth” and the “time G1 arrest and synchronous S phase entry were maintained in the absence of apoptosis” value (HMCLs, including MM1.S; MM1.S cells cultured with PD 0332991) is listed as “at least 6 days”. The G1 arrest (HMCLs, including MM1.S; PD 0332991 0.25 μM) was “complete G1 arrest; also recorded: marked accumulation of G1 cells”, the “proportion of cells in S phase” value (HMCLs, including MM1.S; 12 hours after removal) was 65% and the “proportion of cells in S phase” value (HMCLs, including MM1.S; 18 hours after removal) was 67%. For the same compound, the IC50 ([2]; Homo sapiens, Osteoclast, 504 h, treatment for 3 weeks) was 50 nM, the “time course of treatment on osteoclast formation” value ([2]; first week, but not second or third week) was “sufficient to inhibit osteoclast formation” and the “inhibition of CDK4/6” value (CDK4/6) was “effectively inhibited”. The “killing of Dex-resistant MM1.R cells by low dose bortezomib after PD 0332991” value ([3]; MM1.R cells, 24 hours) was “virtual eradication of cells”, the “bortezomib killing after prior G1 arrest” value ([3]; PD 0332991 24 h, then bortezomib at high dose (250 nM) for 1 h, analysed 6 h later) was “profoundly enhanced” and the “killing by low dose bortezomib added after PD 0332991 vs concurrently” value ([3]; bortezomib 2-6 nM added 24 or 48 hours after PD 0332991) was “greater”. The “MMD and viability, bortezomib added upon removal of PD 0332991 vs unsynchronized cells” value ([3]; bortezomib 4 or 6 nM, continuous) was “greater MMD and loss of viability”, the “bortezomib killing during synchronous G1-S transition” value ([3]; bortezomib pulse at 4 hours post PD 0332991 removal) was “augmented further” and the “MMD and cytotoxic killing by low dose dexamethasone after G1 arrest” value ([3]; dexamethasone 5-50 nM) was “augmented”. For the same compound, the “activity against other kinases” value [4] was “does not cross react; also recorded: little or no activity”, the “activation of caspase-8 by bortezomib after prior PD 0332991 treatment” value (MM1.S cells) was “similarly augmented” and the “Noxa mRNA and protein” value (MM1.S cells; following PD 0332991-induced G1 arrest) was “no longer detectable”. For the same compound, the “inhibition of CDK4 and CDK6 and tumor cell division in patients” value (CDK4 and CDK6 [5]) was “completely inhibits”, the Stat3 protein (IL-6Rα, gp130, Stat3) was “reduction of Stat3 protein” and the “expression of surface IL-6Rα (gp80)” value (IL-6Rα, gp130, Stat3) was “virtually eliminated”. The “surface gp130” value (IL-6Rα, gp130, Stat3) was “only modestly”, the “reduction of live BMM cells” value [6] was “greater” and the “sensitization of BMM cells from bortezomib-refractory patients (MM10)” value ([6]; PD 0332991 pretreatment 4 hours) was “sufficient to sensitize”. The “sensitization of other bortezomib-refractory BMM cells (MM 8, MM 9)” value ([6]; PD 0332991 pretreatment 24 hours) was “susceptible to bortezomib killing”, the “bortezomib killing after PD 0332991 pretreatment” value ([6]; pretreatment 4-24 hours) was “markedly augmented” and the IC50 (CDK4 and CDK6 [7]; freshly isolated primary human BMM cells and HMCLs ex vivo, read-out: IC50, inhibition of CDK4 and CDK6) was 60 nM. For the same compound, the “cell cycle outcome of CDK4/CDK6 inhibition” value (CDK4 and CDK6 [7]; primary BMM cells and HMCLs) was “exclusive G1 arrest unaccompanied by apoptosis; also recorded: exclusive G1 arrest in the absence of apoptosis”, the anti-proliferative activity [8] was “potent anti-proliferative agent” and the “MMD in human myeloma cells vs mouse BM cells in vivo” value (Luc+GFP+MM1.S cells) was “augmented”. The “tumor development (BLI)” value (Luc+GFP+MM1.S cells) was “only modestly reduced” and the tumor burden [9] was “reduced tumor burden profoundly”.

With `CC(C)C[C@H](NC(=O)[C@H](Cc1ccccc1)NC(=O)c1cnccn1)B(O)O` [bortezomib] the “cell cycle effect of bortezomib alone” value (HMCLs, including MM1.S; bortezomib 6 nM alone) was “striking loss of cells in the S phase”, the “TRAIL mRNA” value (MM1.S cells; q-RT-PCR) was “marginal increase” and the “Bim and MCL-1 mRNAs” value (MM1.S cells; q-RT-PCR, bortezomib 4 nM 12 h, with or without PD 0332991 0.25 μM 24 h) was “coordinately elevated”. The “expression of surface IL-6Rα (gp80)” value (IL-6Rα, gp130, Stat3) was “did not vary”, the “surface gp130” value (IL-6Rα, gp130, Stat3) was “only modestly” and the “reduction of live BMM cells” value [6] was “greater”. The “MMD in human myeloma cells vs mouse BM cells in vivo” value (Luc+GFP+MM1.S cells) was “differentially induced” and the “tumor development (BLI)” value (Luc+GFP+MM1.S cells) was “only modestly reduced”.
